In article PMC6105163, “Abaloparatide Exerts Bone Anabolic Effects with Less Stimulation of Bone Resorption-Related Factors: A Comparison with Teriparatide” (Calcified Tissue International, 2018):

How the values were obtained:
osteocyte-like SaOS-2 [1] = experiment: WNT signaling antagonist gene expression (qRT-PCR); format: cell-based, human; conditions: 100 nmol/L, n = 3; for DKK1 (gene expression and protein secretion) / sclerostin (gene expression and protein secretion): continuous treatment (Fig. 4e, f), qRT-PCR and ELISA; for DKK1 gene expression / sclerostin gene expression: treatment limited to first 6 h (Fig. 4c), day 30 cells
Experimental: (§1) SaOS-2 was cultured in 48-well plates at a density of 5 × 10^4 cells/well in DM for 30 days. Cells were treated with ABL and TPTD at a concentration of 100 nmol/L. Six hours after treatment, cells were washed with PBS twice, and cultured with peptide-free or peptide-containing medium for the rest of the experimental period.
(§2) Cells were lysed and total RNA was extracted using an RNeasy Mini Kit (Qiagen, Valencia, CA, USA). RNA was reverse-transcribed into cDNA using the SuperScript III First-Strand Synthesis System for RT-PCR (Invitrogen, Carlsbad, CA, USA). Quantitative RT-PCR was performed on a 7500 Real-Time PCR System (Applied Biosystems) using Power SYBR Green PCR Master Mix (Thermo Fisher Scientific, Waltham, MA, USA). The primers used in this study were as follows: 5′-CGATGGTGGATGGCTCATG-3′ (forward) and 5′-ACCAGATGGGATGTCGGTG-3′ (reverse) for RANKL, 5′-[…]-3′ (forward) and 5′-[…]-3′ (reverse) for M-CSF, 5′-[…]-3′ (forward) and 5′-[…]-3′ (reverse) for OPG, 5′-[…]-3′ (forward) and 5′-[…]-3′ (reverse) for IGF1, 5′-[…]-3′ (forward) and 5′-[…]-3′ (reverse) for osteocalcin, 5′-[…]-3′ (forward) and 5′-[…]-3′ (reverse) for DMP1, 5′-[…]-3′ (forward) and 5′-[…]-3′ (reverse) for SOST, 5′-[…]-3′ (forward) and 5′-[…]-3′ (reverse) for DKK1, 5′-GTGAAGGTCGGAGTCAACG-3′ (forward) and 5′-TGAGGTCAATGAAGGGGTC-3′ (reverse) for GAPDH.

SaOS-2 [2] = experiment: Bone resorption-related factor gene expression (qRT-PCR); format: cell-based, human; conditions: 100 nmol/L; for M-CSF mRNA expression / OPG mRNA expression / RANKL mRNA expression / RANKL/OPG mRNA expression: continuous treatment (Fig. 2b); for expression of bone resorption-related factors such as RANKL/OPG and M-CSF: human osteoblastic cells
Experimental: as §1, with “10” for “30”, “The medium was replaced with serum-free DM for culture under starvation conditions. Twenty-four hours after the start of starvation, cells” for “Cells”
as §2

[3] = tested on: human osteoblastic cell line SaOS-2; experiment: cAMP accumulation assay in SaOS-2; format: cell-based; conditions: for cAMP accumulation, in words: SaOS-2, 10 min (Fig. 1a), n = 3 replicate wells; for EC50 / Emax, cAMP accumulation: SaOS-2, 10 min, 2 mmol/L 3-isobutyl-1-methylxanthine, mean ± s.e.m., three independent experiments, each triplicate; for EC50: cAMP-Screen System, P = 0.13 ABL vs TPTD; for Emax, cAMP accumulation: P = 0.96 ABL vs TPTD
Experimental: The human osteoblastic cell line SaOS-2 and the rat osteoblastic cell line UMR-106 were purchased from the European Collection of Cell Cultures (Wiltshire, UK). SaOS-2 and UMR-106 were maintained in growth medium (GM): McCoy’s 5A (for SaOS-2) or Dulbecco’s Modified Eagle’s Medium (for UMR-106) supplemented with 10% FBS and 1% penicillin/streptomycin at 37 °C with 5% CO2. To initiate cell differentiation, cells were grown in differentiation medium (DM): GM containing 50 µg/mL ascorbic acid, 10 mmol/L β-glycerophosphate, and 10 nmol/L dexamethasone. The culture medium was exchanged every 6 days or less.
Cells were cultured in 96-well plates at a density of 4 × 10^4 cells/well in GM overnight. The medium was replaced with serum-free GM (containing 0.1% BSA instead of 10% FBS) for culture under starvation conditions. Twenty-four hours after the start of starvation, ABL, TPTD, or vehicle (water containing 0.1% BSA) were added to the cells with 2 mmol/L of 3-isobutyl-1-methylxanthine for 10 min. Cells were lysed and accumulated cAMP was measured using the cAMP-Screen System (Applied Biosystems, Waltham, MA, USA) according to the manufacturer’s instructions.
All data are expressed as means ± s.e.m. For calculation of EC50 and Emax, 4-parameter logistic curve fitting was performed. Student’s t test was used for two-group comparisons. Dunnett’s or Tukey’s test was used for multiple comparisons. Significance was inferred from P values of < 0.05. All data were analyzed using GraphPad Prism version 6.03 (GraphPad Software, La Jolla, CA, USA).

osteocyte-like SaOS-2 [4] = experiment: Sclerostin and DKK1 protein secretion (ELISA); format: cell-based, human; conditions: 100 nmol/L, transient (Fig. 4d); efficacies of ABL and TPTD not significantly different; n = 3
Experimental: as §1
(§3) Human Quantikine M-CSF, Sclerostin, and DKK1 ELISA kits (R&D Systems, Minneapolis, MN, USA) were used to quantify M-CSF, sclerostin, and DKK1, respectively, in the cell supernatants according to the manufacturer’s instructions.

OVX rats [5] = experiment: L4 vertebral bone strength in OVX rats; format: in vivo, Sprague–Dawley rats (female); conditions: once daily s.c. for 28 days, day 28, vs OVX, n = 8 or 9
From the text: (§4) Ten-week-old female Sprague–Dawley rats were purchased from Charles River Laboratories Japan, Inc. (Kanagawa, Japan) and ovariectomized at 12 weeks old. Thirty-five days after surgery, rats received once daily subcutaneous injection of ABL, TPTD, or vehicle (saline containing 0.1% heat-inactivated rat serum) for 28 days. Day 0 indicates the day when administration was started. On day 26, rats were anesthetized with intraperitoneally administered pentobarbital sodium and the lumbar spine (L4 and L5) BMD was measured with a PIXImus2 (GE Healthcare, Chicago, IL). Blood (collected from the tail vein) and urine samples were obtained on day 28. Prior to collection, rats were fasted for 15–17 h. Rats were euthanized after the blood and urine collection, and the lumbar spine was removed for the measurement of bone strength. All experimental procedures were approved by the Animal Care and Use Committee of Teijin Institute for Bio-Medical Research.
L4 was isolated from the lumbar spine. The height of the vertebral body was measured with a vernier caliper. To obtain vertebral body specimens, the cranial and caudal ends of the vertebral body were cut with a diamond saw to a height of 4 mm. Bone strength was measured with a MZ-500S (MARUTO Testing Machine Company, Tokyo, Japan).

OVX rats [6] = experiment: Lumbar spine (L4-L5) BMD in OVX rats; format: in vivo, Sprague–Dawley rats (female); conditions: once daily s.c. for 28 days, BMD on day 26 (PIXImus2), vs OVX, n = 8 or 9
From the text: as §4

SaOS-2 [7] = experiment: M-CSF protein secretion (ELISA); format: cell-based, human; conditions: 100 nmol/L, n = 3; for M-CSF protein secretion: continuous treatment (Fig. 2c), ABL and TPTD did not differ significantly
Experimental: as §1, with “10” for “30”, “The medium was replaced with serum-free DM for culture under starvation conditions. Twenty-four hours after the start of starvation, cells” for “Cells”
as §3

Row | Substance | DKK1 (gene expression and protein secretion) (osteocyte-like SaOS-2 [1]) | sclerostin (gene expression and protein secretion) (osteocyte-like SaOS-2 [1]) | DKK1 gene expression (osteocyte-like SaOS-2 [1]) | sclerostin gene expression (osteocyte-like SaOS-2 [1]) | M-CSF mRNA expression (SaOS-2 [2]; n = 3) | OPG mRNA expression (SaOS-2 [2]; n = 3) | RANKL mRNA expression (SaOS-2 [2]; n = 3) | RANKL/OPG mRNA expression (SaOS-2 [2]; n = 3) | expression of bone resorption-related factors such as RANKL/OPG and M-CSF (SaOS-2 [2]) | cAMP accumulation, in words [3] | EC50 [3] | Emax, cAMP accumulation [3] | DKK1 protein secretion (osteocyte-like SaOS-2 [4]) | sclerostin protein secretion (osteocyte-like SaOS-2 [4]) | lumbar spine (L4) bone strength (OVX rats [5]) | lumbar spine BMD (OVX rats [6]) | M-CSF protein secretion (SaOS-2 [7]) | further results
1 | [Glu^22,25, Leu^23,28,31, Aib^29, Lys^26,30] human PTHrP(1–34)–NH2 [Abaloparatide] | similarly inhibited | similarly inhibited | similarly suppressed | similarly suppressed | similarly promoted | inhibited | similarly promoted | similarly promoted | increased | dose-dependently increased cAMP | 5.1 ± 0.4 nM | 21.9 ± 1.4 nmol/L | inhibited | inhibited | significantly increased | significantly increased | increased | M-CSF expression, ABL vs TPTD (SaOS-2 [2]; transient 6-h treatment): less than TPTD; RANKL/OPG expression, ABL vs TPTD (SaOS-2 [2]; transient 6-h treatment): less than TPTD; bone resorption-related factors mRNA, ABL vs TPTD (SaOS-2 [2]; transient treatment (first 6 h, then washed out) (Fig. 2d), n = 3): significantly attenuated as compared with TPTD; EC50 and Emax of ABL compared with TPTD ([3]; SaOS-2, Table 1): no significant differences; M-CSF protein secretion, ABL vs TPTD (SaOS-2 [7]; transient treatment (first 6 h) (Fig. 2e)): significantly less with ABL treatment than with TPTD
2 | human PTH(1–34) [Teriparatide] | similarly inhibited | similarly inhibited | similarly suppressed | similarly suppressed | similarly promoted | inhibited | similarly promoted | similarly promoted | increased | dose-dependently increased cAMP | 3.9 ± 0.5 nM | 22.0 ± 1.5 nmol/L | inhibited | inhibited | significantly increased | significantly increased | increased | –
